We go through two compounds from US20240101569A1, “SALT CRYSTALS” (INTRA-CELLULAR THERAPIES, INC., priority 2021, published 2024).

The nature of series [1]: Solubility study of free base crystalline and succinate salt crystalline forms (pH titration, chase equilibrium). The format is physicochemical. The note with it: water, thermodynamic from solid, aqueous, titration with UV-turbidity probe. An excerpt:
The solubilities of free base crystalline and succinate salt crystalline forms of 2-(4-acetylbenzyl)-3-((4-fluorophenyl)amino)-5,7,7-trimethyl-7,8-dihydro-2H-imidazo[1,2-a]pyrazolo[4,3-e]pyrimidin-4(5H)-one are compared. Samples are titrated in water or in a minimum of three titrations under co-solvent conditions from the pH where the sample is fully dissolved. The sample precipitates from solution are detected by a UV-turbidity probe, which corresponds to a kinetic solubility. After precipitation, base and acid titrants are alternately added to drive the sample back and forth across the equilibrium solubility of the neutral species (the intrinsic solubility). At this point, the samples would exist in a supersaturated or subsaturated state (i.e. chase equilibrium). The intrinsic solubilities are determined from the pH between the supersaturated and subsaturated states corresponding to an intrinsic solubility. The samples can be determined by extrapolation to aqueous media, when co-solvent conditions are used.
This degree of aqueous solubility predicts faster dissolution rates in vitro and in vivo.

Series [2] can be described thus: Pharmacokinetics study of succinate salt crystals in dogs. The format is in vivo. The note with it: 5 mg/kg orally, plasma; for DN AUC0-24 / DN Cmax: dose-normalised; for Cmax / Tmax / half-life / AUC(0-t): dog, po; for AUC(0-t): read-out: AUC0-24. As to the method:
The succinate salt of 2-(4-acetylbenzyl)-3-((4-fluorophenyl)amino)-5,7,7-trimethyl-7,8-dihydro-2H-imidazo[1,2-a]pyrazolo[4,3-e]pyrimidin-4(5H)-one is administered to dogs at a dose of 5 mg/kg orally. A separate group of dogs is administered 2-(4-acetylbenzyl)-3-((4-fluorophenyl)amino)-5,7,7-trimethyl-7,8-dihydro-2H-imidazo[1,2-a]pyrazolo[4,3-e]pyrimidin-4(5H)-one free base 5 mg/kg orally. The analysis of drug concentration in plasma samples collected is analyzed.
The pharmacokinetic (PK) parameters are determined from the plasma concentration versus time data by non-compartmental methods with uniform weighting. The maximum observed concentration (Cmax) and the time of the maximum observed concentration (Tmax) are obtained from the bioanalytical raw data. The area-under-the-plasma concentration-time curve from time zero to the time of the last measurable sample (AUC) is calculated by the trapezoidal rule.

In series [3] the test system is phosphodiesterase 1 (PDE 1). The conditions noted are these: statement, no values; cited from earlier work.
A short description of series [4]: Solid-state properties of succinate salt crystals (stated in words). The format is physicochemical.

`CC(=O)c1ccc(Cn2nc3c(c2Nc2ccc(F)cc2)C(=O)N(C)C2=NC(C)(C)CN23)cc1` [Free Base, 2-(4-acetylbenzyl)-3-((4-fluorophenyl)amino)-5,7,7-trimethyl-7,8-dihydro-2H-imidazo[1,2-a]pyrazolo[4,3-e]pyrimidin-4(5H)-one]: the solubility in series [1] is 285 µg/mL. For the same compound, in series [2], the “DN AUC0-24” value is 304.6 [ng · hr/mL]/[mg/kg], the “DN Cmax” value was 41 [ng/mL]/[mg/kg], the Cmax came to 205 ng/mL and the Tmax came out at 1.3 h. For the same compound, in series [2], the half-life was 6.8 h and the AUC(0-t) turned out to be 1520 ng·h/mL. The “PDE1 inhibition (in words)” value in series [3] is “potent and selective”.

`CC(=O)c1ccc(Cn2nc3c(c2Nc2ccc(F)cc2)C(=O)N(C)C2=NC(C)(C)CN23)cc1.O=C(O)CCC(=O)O` [Succinate Salt, 2-(4-acetylbenzyl)-3-((4-fluorophenyl)amino)-5,7,7-trimethyl-7,8-dihydro-2H-imidazo[1,2-a]pyrazolo[4,3-e]pyrimidin-4(5H)-one succinate]: the solubility in series [1] is approximately 7000 µg/mL. For the same compound, in series [4], the hygroscopicity result is given as “low hygroscopicity”, the “solubility (in words)” value is given as “good solubility” and the stability result was “particularly stable”. In series [2], the “DN AUC0-24” value is 331.9 [ng · hr/mL]/[mg/kg], the “DN Cmax” value was 123.8 [ng/mL]/[mg/kg], the Cmax came out at 619 ng/mL and the Tmax was 0.4 h. For the same compound, in series [2], the half-life is 7 h and the AUC(0-t) turned out to be 1660 ng·h/mL.

As usually defined, the solubility is how much of the substance goes into solution per volume. As usually defined, the Cmax is the highest concentration seen after dosing. One may read the Tmax as the time at which the peak concentration occurs. For orientation: half-life means the time in which the quantity being followed falls by half.
